Molecular target: T1, HCV polymerase (Hepatitis C virus genotype 1b, UniProt P26663)
T1 construct: 2.5 pmoles (0.15 μg) HCV polymerase protein in a final volume of 75 μL
Test: HCV polymerase primer/template-directed transcription assay (32P-GTP incorporation, filter binding)
Type: biochemical
Conditions: for IC50: recombinant HCV polymerase, 30 minutes at 30° C., concentration giving 50% inhibition of polymerase-directed transcription, read-out: IC50; for inhibition at 50 µM: @ 50 uM compound
Protocol: The compounds described herein were tested for activity with HCV polymerase. Recombinant HCV polymerase was tested for its ability to perform primer/template-directed transcription in assays that contained 30 mM tris-HCl pH 7.2, 10 mM MgCl2, 20 mM NaCl, 1 mM Dithiothreitol (DTT), 0.05% Tween-20, 1% glycerol, 5 pmoles biotin-dG12 (primer), 0.5 pmoles poly(rC)300 (template), 1 μM GTP, 0.1-0.3 uCi α-^32P-GTP, and 2.5 pmoles (0.15 μg) HCV polymerase protein in a final volume of 75 μL. Reactions were initiated by addition of enzyme and incubated 30 minutes at 30° C. Reactions were stopped by addition of 33 mM EDTA, and polynucleotide products were collected by filtration through Diethylaminoethyl (DE) Filtermat papers (Wallac). Unincorporated triphosphate was removed by washing the filters with 5% dibasic sodium phosphate. The filters were counted in a Packard Tri-Lux Microbeta scintillation counter (Packard Bioscience, Meriden, Conn.). Compounds to be tested were added at various concentrations, e.g., 1 μm to 50 μm, from stocks in 10% DMSO-water (final DMSO is 1% in reaction).
IC50 values were estimated from the primary cpm data (collected in triplicate) using the formula: cpm (I)=cpm(no inhibitor)(1−([I]/([I]+IC50))). An IC50 value represents the concentration (in μM) of a compound that provides 50% inhibition of polymerase-directed transcription in the above assay. A percent inhibition value is expressed for a compound where it was impractical to calculate an IC50 value with available data. If the IC50 estimated by the above equation was less than 200 nM, it was recalculated using the following equation, which takes into account the enzyme concentration (30 nM) in the assay: cpm(I)=cpm(no inhibitor)(1−((((I+IC50+30e−9)−sqrt(((I+IC50+30e−9)^2)−4×30e−9×I)))/((2)(30e−9))). Curve fitting was performed using the program KaleidaGraph (Synergy Software, Reading, Pa.).

[1] = given where IC50 was impractical to calculate, read-out: percent inhibition

T1 sequence (P26663 2420-3010): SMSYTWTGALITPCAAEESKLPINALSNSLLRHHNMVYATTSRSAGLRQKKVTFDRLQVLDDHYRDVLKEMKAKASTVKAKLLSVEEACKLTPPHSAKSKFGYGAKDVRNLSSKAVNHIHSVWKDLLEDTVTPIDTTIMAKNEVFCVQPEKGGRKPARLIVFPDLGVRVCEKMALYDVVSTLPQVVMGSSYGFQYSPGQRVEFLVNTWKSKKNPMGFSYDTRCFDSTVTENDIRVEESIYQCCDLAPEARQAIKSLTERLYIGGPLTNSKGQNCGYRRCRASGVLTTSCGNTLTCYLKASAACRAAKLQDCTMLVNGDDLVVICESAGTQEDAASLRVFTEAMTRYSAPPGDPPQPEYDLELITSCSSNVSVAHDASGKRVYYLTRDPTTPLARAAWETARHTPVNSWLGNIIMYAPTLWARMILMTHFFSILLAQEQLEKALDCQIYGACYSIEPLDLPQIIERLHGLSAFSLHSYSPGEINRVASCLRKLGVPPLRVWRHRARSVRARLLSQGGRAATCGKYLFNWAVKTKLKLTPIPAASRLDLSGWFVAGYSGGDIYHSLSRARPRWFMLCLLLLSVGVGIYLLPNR

SMILES | IC50 | other results
CCC(C#N)(CC)c1ccc(CCC2(C3CCCC3)CC(=O)C(Cc3nc4nc(C)cc(C)n4n3)C(=O)O2)cc1F (stereo not shown) [A(112), 2-(4-{2-[2-Cyclopentyl-5-(5,7-dimethyl-[1,2,4]triazolo[1,5-a]pyrimidin-2-ylmethyl)-4,6-dioxo-tetrahydro-pyran-2-yl]-ethyl}-2-fluoro-phenyl)-2-ethyl-butyronitrile] | 6 nM | –
COc1cc(OC)c(CCC2(C3CCCC3)CC(O)=C(Sc3nc4ncccn4n3)C(=O)O2)cc1Cl (stereo not shown) [C(84)] | 33 nM | –
COc1cc(C(C)(C)C#N)c(F)cc1CCC1(C2CCCC2)CC(O)=C(Cc2nc3ncc(C)cn3n2)C(=O)O1 (stereo not shown) [A(261), 2-(4-{2-[2-Cyclopentyl-4-hydroxy-5-(6-methyl-[1,2,4]triazolo[1,5-a]pyrimidin-2-ylmethyl)-6-oxo-3,6-dihydro-2H-pyran-2-yl]-ethyl}-2-fluoro-5-methoxy-phenyl)-2-methyl-propionitrile] | 4 nM | –
CCc1cc(CCC2(C3CCCC3)CC(O)=C(Cc3nc4nc(C)cc(C)n4n3)C(=O)O2)ccc1OCCOC (stereo not shown) [A(183), 6-Cyclopentyl-3-(5,7-dimethyl-[1,2,4]triazolo[1,5-a]pyrimidin-2-ylmethyl)-6-{2-[3-ethyl-4-(2-methoxy-ethoxy)-phenyl]-ethyl}-4-hydroxy-5,6-dihydro-pyran-2-one] | 7 nM | –
Cc1cc(C)n2nc(CC3=C(O)CC(CCc4ccc5c(c4)OCCO5)(C4CCCC4)OC3=O)nc2n1 (stereo not shown) [B(36), 6-Cyclopentyl-6-[2-(2,3-dihydro-benzo[1,4]dioxin-6-yl)-ethyl]-3-(5,7-dimethyl-[1,2,4]triazolo[1,5-a]pyrimidin-2-ylmethyl)-4-hydroxy-5,6-dihydro-pyran-2-one] | 42 nM | –
CCC1(CC)CC(O)=C(Sc2nc3nc(C)cc(C)n3n2)C(=O)O1 [C(18), 3-(5,7-Dimethyl-[1,2,4]triazolo[1,5-a]pyrimidin-2-ylsulfanyl)-6,6-diethyl-4-hydroxy-5,6-dihydro-pyran-2-one] | – | inhibition at 50 µM [1]: 2%
COc1ccc(CCC2(C3CCCC3)CC(O)=C(Cc3nc(C)nn3C)C(=O)O2)cc1Cl (stereo not shown) [B(53), 6-[2-(Chloro-4-methoxyphenyl)ethyl]-6-cyclopentyl-3-[(1,3-dimethyl-1H-1,2,4-triazol-5-yl)methyl]-4-hydroxy-5,6-dihydro-2H-pyran-2-one] | 350 nM | –
CCCc1cc(CCC2(C3CCCC3)CC(O)=C(Cc3nc4nc(CC)cc(CC)n4n3)C(=O)O2)ccc1O (stereo not shown) [A(137), 6-cyclopentyl-3-[(5,7-dietylphenyl)ethyl]-5,6-hyl[1,2,4]triazolo[1,5-a]pyrimidin-2-yl)methyl]-4-hydroxy-6-[2-(4-hydroxy-3-propdihydro-2H-pyran-2-one] | 7 nM | –
CNC(=O)c1ccc(CCC2(C3CCCC3)CC(=O)CC(=O)O2)cc1F (stereo not shown) [A(11), 4-[2-(2-Cyclopentyl-4,6-dioxo-tetrahydro-pyran-2-yl)-ethyl]-2-fluoro-N-methyl-benzamide] | 16700 nM | –
Cc1cc(C)n2nc(CC3=C(O)CC(CCCCC4CCCCC4)(C4CCCC4)OC3=O)nc2n1 (stereo not shown) [B(39), 6-(4-Cyclohexyl-butyl)-6-cyclopentyl-3-(5,7-dimethyl-[1,2,4]triazolo[1,5-a]pyrimidin-2-ylmethyl)-4-hydroxy-5,6-dihydro-pyran-2-one] | 29 nM | –
CC(=O)n1nc(C)c(CCC2(C3CCCC3)CC(=O)CC(=O)O2)c1C (stereo not shown) [A(19), 6-[2-(1-Acetyl-3,5-dimethyl-1H-pyrazol-4-yl)-ethyl]-6-cyclopentyl-dihydro-pyran-2,4-dione] | – | inhibition at 50 µM [1]: 37%
CC(C)c1cc(CCC2(C3CCCC3)CC(=O)CC(=O)O2)ccc1O (stereo not shown) [A(93), 6-Cyclopentyl-6-[2-(4-hydroxy-3-isopropyl-phenyl)-ethyl]-dihydro-pyran-2,4-dione] | 700 nM | –
O=C1CC(=O)OC(CCc2ccc(OC3CCCCO3)cc2)(C2CCCC2)C1 (stereo not shown) [A(48), 6-Cyclopentyl-6-{2-[4-(tetrahydro-pyran-2-yloxy)-phenyl]-ethyl}-dihydro-pyran-2,4-dione] | 33200 nM | –
CCc1cc(CCC2(C3CCCC3)CC(O)=C(Cc3nc4nc(C)cc(C)n4n3)C(=O)O2)c(OC)cc1O (stereo not shown) [A(150), 6-Cyclopentyl-3-(5,7-dimethyl-[1,2,4]triazolo[1,5-a]pyrimidin-2-ylmethyl)-6-[2-(5-ethyl-4-hydroxy-2-methoxy-phenyl)-ethyl]-4-hydroxy-5,6-dihydro-pyran-2-one] | 7 nM | –
COc1ccc(CCC2(C3CCCC3)CC(O)=C(Sc3cccc4cccnc34)C(=O)O2)cc1Cl (stereo not shown) [C(03), 6-[2-(3-Chloro-4-methoxy-phenyl)-ethyl]-6-cyclopentyl-4-hydroxy-3-(quinolin-8-ylsulfanyl)-5,6-dihydro-pyran-2-one] | 500 nM | –
CCC1(CCc2ccc(OC)cc2)CC(O)=C(Sc2nc3nc(C)cc(C)n3n2)C(=O)O1 (stereo not shown) [C(16), 3-(5,7-Dimethyl-[1,2,4]triazolo[1,5-a]pyrimidin-2-ylsulfanyl)-6-ethyl-4-hydroxy-6-[2-(4-methoxy-phenyl)-ethyl]-5,6-dihydro-pyran-2-one] | – | inhibition at 20 µM (@ 20 uM compound, given where IC50 was impractical to calculate, read-out: percent inhibition): 8%
N#CCC(=O)c1ccc(CCC2(C3CCCC3)CC(=O)CC(=O)O2)cc1 (stereo not shown) [A(75), 3-{4-[2-(2-Cyclopentyl-4,6-dioxo-tetrahydro-pyran-2-yl)-ethyl]-phenyl}-3-oxo-propionitrile] | 7100 nM | –
Cc1cc(C)n2nc(CC3=C(O)CC(CCc4ccc(CCO)c(F)c4)(C4CCCC4)OC3=O)nc2n1 (stereo not shown) [A(119), 6-Cyclopentyl-3-(5,7-dimethyl-[1,2,4]triazolo[1,5-a]pyrimidin-2-ylmethyl)-6-{2-[3-fluoro-4-(2-hydroxy-ethyl)-phenyl]-ethyl}-4-hydroxy-5,6-dihydro-pyran-2-one] | 1200 nM | –
COc1ccc(CCC2(C3CCCC3)CC(O)=C(Sc3nnc(-c4cccnc4)n3C)C(=O)O2)cc1Cl (stereo not shown) [C(96)] | 75 nM | –
CCc1ccc(O)c(CCC2(C3CCCC3)CC(O)=C(Cc3nc4nc(C)cc(C)n4n3)C(=O)O2)c1 (stereo not shown) [A(166), 6-Cyclopentyl-3-(5,7-dimethyl-[1,2,4]triazolo[1,5-a]pyrimidin-2-ylmethyl)-6-[2-(5-ethyl-2-hydroxy-phenyl)-ethyl]-4-hydroxy-5,6-dihydro-pyran-2-one] | 1 nM | –
O=C1OC(CCC2CCCCC2)(C2CCCC2)CC(O)=C1Sc1nnc(-c2ccncc2)[nH]1 (stereo not shown) [C(27), 6-(2-Cyclohexyl-ethyl)-6-cyclopentyl-4-hydroxy-3-(5-pyridin-4-yl-4H-[1,2,4]triazol-3-ylsulfanyl)-5,6-dihydro-pyran-2-one] | 2500 nM | –
O=C1CC(=O)OC(CCc2ccc(-c3nnc(-c4ccccc4)o3)cc2)(C2CCCC2)C1 (stereo not shown) [A(50), 6-Cyclopentyl-6-{2-[4-(5-phenyl-[1,3,4]oxadiazol-2-yl)-phenyl]-ethyl}-dihydro-pyran-2,4-dione] | 5900 nM | –
COc1ccc(CCC2(C3CCCC3)CC(O)=C(Cc3nn(C)cc3Cl)C(=O)O2)cc1Cl (stereo not shown) [B(29), 6-[2-(3-Chloro-4-methoxy-phenyl)-ethyl]-3-(4-chloro-1-methyl-1H-pyrazol-3-ylmethyl)-6-cyclopentyl-4-hydroxy-5,6-dihydro-pyran-2-one] | 220 nM | –
COc1ccc(CCC2(C3CCCC3)CC(O)=C(Sc3nnc(CN(C)C)n3C)C(=O)O2)cc1Cl (stereo not shown) [C(97), 6-[2-(3-chloro-4-methoxyphenyl)ethyl]-6-cyclopentyl-3-({5-[(dimethylamino)methyl]-4-methyl-4H-1,2,4-triazol-3-yl}thio)-4-hydroxy-5,6-dihydro-2H-pyran-2-one] | 120 nM | –
COc1ccc(CCC2(CC(C)C)CC(=O)CC(=O)O2)cc1 (stereo not shown) [A(24), 6-Isobutyl-6-[2-(4-methoxy-phenyl)-ethyl]-dihydro-pyran-2,4-dione] | – | inhibition at 50 µM [1]: 29%
CCC1(CC)CC(O)=C(Sc2nc3cc(Cl)ccc3n2C(C)C)C(=O)O1 [C(19), 3-(5-Chloro-1-isopropyl-1H-benzoimidazol-2-ylsulfanyl)-6,6-diethyl-4-hydroxy-5,6-dihydro-pyran-2-one] | – | inhibition at 50 µM [1]: 22%
CCOc1c(Cl)cc(CCC2(C3CCCC3)CC(O)=C(Cc3nc4nc(C)cc(C)n4n3)C(=O)O2)cc1Cl (stereo not shown) [B(37), 6-Cyclopentyl-6-[2-(3,5-dichloro-4-ethoxy-phenyl)-ethyl]-3-(5,7-dimethyl-[1,2,4]triazolo[1,5-a]pyrimidin-2-ylmethyl)-4-hydroxy-5,6-dihydro-pyran-2-one] | 8 nM | –
CCC(C#N)(CC)c1c(F)cc(CCC2(C3CCCC3)CC(O)=C(Cc3nc4ncc(C)cn4n3)C(=O)O2)cc1F (single isomer, unassigned; (-)) [A(264), (−)-2-(4-{2-[2-Cyclopentyl-4-hydroxy-5-(6-methyl-[1,2,4]triazolo[1,5-a]pyrimidin-2-ylmethyl)-6-oxo-3,6-dihydro-2H-pyran-2-yl]-ethyl}-2,6-difluoro-phenyl)-2-ethyl-butyronitrile] | 4 nM | –
